Laboratory results published in US20240076285A1, “COMPOUNDS AND COMPOSITIONS FOR TREATING CONDITIONS ASSOCIATED WITH STING ACTIVITY” (IFM Due, Inc., priority 2020, published 2024).

Target: T1, hSTING (Homo sapiens, UniProt Q86WV6, G230A/H232R/R293Q/R71H)
T1 construct: host or cells: THP1-Dual KO-IFNAR2 cells
Experiment: STING reporter assay in THP1-Dual KO-IFNAR2 cells (2'3'cGAMP stimulation, luciferase reporter)
Format: cell-based
Conditions: 15 μM 2'3'cGAMP, 24 h
Protocol: STING pathway activation by the compounds described herein was measured using THP1-Dual™ cells (KO-IFNAR2).
THP1-Dual™ KO-IFNAR2 Cells (obtained from invivogen) were maintained in RPMI, 10% FCS, 5 ml P/S, 2 mM L-glut, 10 mM Hepes, and 1 mM sodium pyruvate. Compounds were spotted in empty 384 well tissue culture plates (Greiner 781182) by Echo for a final concentration of 0.0017-100 μM. Cells were plated into the TC plates at 40 μL per well, 2×10E6 cells/mL. For activation with STING ligand, 2′3′cGAMP (MW 718.38, obtained from Invivogen), was prepared in Optimem media.
The following solutions were prepared for each 1×384 plate: • Solution A: 2 mL Optimem with one of the following stimuli: • 60 μL of 10 mM 2′3′cGAMP→150 μM stock • Solution B: 2 mL Optimem with 60 μL Lipofectamine 2000→Incubate 5 min at RT
2 mL of solution A and 2 ml Solution B was mixed and incubated for 20 min at room temperature (RT). 20 μL of transfection solution (A+B) was added on top of the plated cells, with a final 2′3′cGAMP concentration of 15 μM. The plates were then centrifuged immediately at 340 g for 1 minute, after which they were incubated at 37° C., 5% CO2, >98% humidity for 24 h. Luciferase reporter activity was then measured. EC50 values were calculated by using standard methods known in the art.
Luciferase reporter assay: 10 μL of supernatant from the assay was transferred to white 384-plate with flat bottom and squared wells. One pouch of QUANTI-Luc™ Plus was dissolved in 25 mL of water. 100 μL of QLC Stabilizer per 25 mL of QUANTI-Luc™ Plus solution was added. 50 μL of QUANTI-Luc™ Plus/QLC solution per well was then added. Luminescence was measured on a Platereader (e.g., Spectramax I3X (Molecular Devices GF3637001)).
Luciferase reporter activity was then measured. EC50 values were calculated by using standard methods known in the art.

T1 sequence (Q86WV6 whole entry R71H/G230A/H232R/R293Q): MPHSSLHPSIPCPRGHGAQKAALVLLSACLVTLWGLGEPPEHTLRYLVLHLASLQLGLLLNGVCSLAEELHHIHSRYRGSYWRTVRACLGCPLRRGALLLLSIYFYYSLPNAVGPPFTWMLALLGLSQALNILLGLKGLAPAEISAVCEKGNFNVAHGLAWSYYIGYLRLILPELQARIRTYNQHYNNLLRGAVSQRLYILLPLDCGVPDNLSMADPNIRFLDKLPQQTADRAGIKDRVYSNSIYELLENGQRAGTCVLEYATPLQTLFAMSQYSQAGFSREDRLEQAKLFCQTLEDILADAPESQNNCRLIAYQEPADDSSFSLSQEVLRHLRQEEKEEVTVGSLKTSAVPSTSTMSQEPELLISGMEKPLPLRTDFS

N#Cc1cc(Nc2ccc3c(c2)OC(F)(F)C(F)(F)O3)cc(Nc2ccc3cc[nH]c3c2)n1 [Compound 143, 6-((1H-indol-6-yl)amino)-4-((2,2,3,3-tetrafluoro-2,3-dihydrobenzo[b][1,4]dioxin-6-yl)amino)picolinonitrile]
EC50 (class symbols): 0.2 to 1 µM

CCc1ccc(Nc2cc(C#N)nc(Nc3cc(Cl)c4cc[nH]c4c3)c2)cn1 [Compound 174, 6-[(4-chloro-1H-indol-6-yl)amino]-4-[(6-ethylpyridin-3-yl)amino]pyridine-2-carbonitrile]
EC50 (class symbols): 0.2 to 1 µM

N#Cc1cc(N2CCC(Cc3ccc(F)cc3)CC2)cc(Nc2cc(Cl)c3cc[nH]c3c2)n1 [Compound 149, 6-[(4-chloro-1H-indol-6-yl)amino]-4-{4-[(4-fluorophenyl)methyl]piperidin-1-yl}pyridine-2-carbonitrile]
EC50 (class symbols): 0.2 to 1 µM

N#Cc1cc(Nc2ccc(C(F)(F)F)nc2)cc(Nc2cc(Cl)c3cc[nH]c3c2)n1 [Compound 183, 6-[(4-chloro-1H-indol-6-yl)amino]-4-{[6-(trifluoromethyl)pyridin-3-yl]amino}pyridine-2-carbonitrile]
EC50 (class symbols): 0.2 to 1 µM

N#Cc1cc(Nc2ccc3c(c2)OCCO3)cc(Nc2cc(Cl)c3cc[nH]c3c2)n1 [Compound 191, 6-[(4-chloro-1H-indol-6-yl)amino]-4-[(2,3-dihydro-1,4-benzodioxin-6-yl)amino]pyridine-2-carbonitrile]
EC50 (class symbols): 1 to 5 µM

N#Cc1cc(Nc2cc(F)cc(F)c2)cc(Nc2cc(Cl)c3cc[nH]c3c2)n1 [Compound 170, 6-[(4-chloro-1H-indol-6-yl)amino]-4-[(3,5-difluorophenyl)amino]pyridine-2-carbonitrile]
EC50 (class symbols): 0.04 to 0.2 µM

N#Cc1cc(N2CCN(CC(F)(F)F)CC2)cc(Nc2cc(Cl)c3cc[nH]c3c2)n1 [Compound 148, 6-[(4-chloro-1H-indol-6-yl)amino]-4-[4-(2,2,2-trifluoroethyl)piperazin-1-yl]pyridine-2-carbonitrile]
EC50 (class symbols): 1 to 5 µM

Cc1ccc(Nc2cc(C#N)nc(Nc3cc(Cl)c4cc[nH]c4c3)c2)cn1 [Compound 184, 6-[(4-chloro-1H-indol-6-yl)amino]-4-[(6-methylpyridin-3-yl)amino]pyridine-2-carbonitrile]
EC50 (class symbols): 0.2 to 1 µM

N#Cc1cc(Nc2cncc(C(F)(F)F)c2)cc(Nc2cc(Cl)c3cc[nH]c3c2)n1 [Compound 187, 6-[(4-chloro-1H-indol-6-yl)amino]-4-{[5-(trifluoromethyl)pyridin-3-yl]amino}pyridine-2-carbonitrile]
EC50 (class symbols): 0.2 to 1 µM

CC1(C)CCN(c2cc(C#N)nc(Nc3cc(Cl)c4cc[nH]c4c3)c2)CC1 [Compound 160, 6-[(4-chloro-1H-indol-6-yl)amino]-4-(4,4-dimethylpiperidin-1-yl)pyridine-2-carbonitrile]
EC50 (class symbols): 0.2 to 1 µM

N#Cc1cc(Nc2cc(Cl)cc(Cl)c2)cc(Nc2cc(Cl)c3cc[nH]c3c2)n1 [Compound 164, 6-[(4-chloro-1H-indol-6-yl)amino]-4-[(3,5-dichlorophenyl)amino]pyridine-2-carbonitrile]
EC50 (class symbols): 0.2 to 1 µM

N#Cc1cc(N2CCC(Oc3ccccc3)CC2)cc(Nc2cc(Cl)c3cc[nH]c3c2)n1 [Compound 155, 6-[(4-chloro-1H-indol-6-yl)amino]-4-(4-phenoxypiperidin-1-yl)pyridine-2-carbonitrile]
EC50 (class symbols): 0.2 to 1 µM

COc1cc(Cl)cc(Nc2cc(C#N)nc(Nc3ccc4cc[nH]c4c3)c2)c1 [Compound 112, 4-[(3-chloro-5-methoxyphenyl)amino]-6-[(1H-indol-6-yl)amino]pyridine-2-carbonitrile]
EC50 (class symbols): 0.2 to 1 µM

N#Cc1cc(Nc2ccc(C(F)(F)F)c(F)c2)cc(Nc2ccc3cc[nH]c3c2)n1 [Compound 104, 4-{[3-fluoro-4-(trifluoromethyl)phenyl]amino}-6-[(1H-indol-6-yl)amino]pyridine-2-carbonitrile]
EC50 (class symbols): 0.2 to 1 µM

N#Cc1cc(Nc2ccc3c(c2)CCC3)cc(Nc2ccc3cc[nH]c3c2)n1 [Compound 142, 4-[(2,3-dihydro-1H-inden-5-yl)amino]-6-[(1H-indol-6-yl)amino]pyridine-2-carbonitrile]
EC50 (class symbols): 0.2 to 1 µM

Cc1nc2cc(Nc3cc(C#N)nc(Nc4ccc5cc[nH]c5c4)c3)ccc2s1 [Compound 107, 6-[(1H-indol-6-yl)amino]-4-[(2-methyl-1,3-benzothiazol-5-yl)amino]pyridine-2-carbonitrile]
EC50 (class symbols): 1 to 5 µM

N#Cc1cc(Nc2ccc(Cl)c(F)c2)cc(Nc2ccc3cc[nH]c3c2)n1 [Compound 139, 4-[(4-chloro-3-fluorophenyl)amino]-6-[(1H-indol-6-yl)amino]pyridine-2-carbonitrile]
EC50 (class symbols): 0.2 to 1 µM

CN1CCN(c2cc(C#N)nc(Nc3ccc4cc[nH]c4c3)c2)CC1 [Compound 121, 6-((1H-indol-6-yl)amino)-4-(4-methylpiperazin-1-yl)picolinonitrile]
EC50 (numeric bound): > 30 µM

COC1CCN(c2cc(C#N)nc(Nc3cc(Cl)c4cc[nH]c4c3)c2)CC1 [Compound 156, 6-[(4-chloro-1H-indol-6-yl)amino]-4-(4-methoxypiperidin-1-yl)pyridine-2-carbonitrile]
EC50 (class symbols): 1 to 5 µM

COc1cc(Cl)cc(Nc2cc(C#N)nc(Nc3cc(Cl)c4cc[nH]c4c3)c2)c1 [Compound 185, 6-[(4-chloro-1H-indol-6-yl)amino]-4-[(3-chloro-5-methoxyphenyl)amino]pyridine-2-carbonitrile]
EC50 (class symbols): 0.04 to 0.2 µM

N#Cc1cc(Nc2ccc3c(c2)CC(=O)N3)cc(Nc2cc(Cl)c3cc[nH]c3c2)n1 [Compound 181, 6-[(4-chloro-1H-indol-6-yl)amino]-4-[(2-oxo-2,3-dihydro-1H-indol-5-yl)amino]pyridine-2-carbonitrile]
EC50 (class symbols): 1 to 5 µM

N#Cc1cc(Nc2ccc3c(c2)OC(F)(F)C(F)(F)O3)cc(Nc2cc(Cl)c3cc[nH]c3c2)n1 [Compound 189, 6-[(4-chloro-1H-indol-6-yl)amino]-4-[(2,2,3,3-tetrafluoro-2,3-dihydro-1,4-benzodioxin-6-yl)amino]pyridine-2-carbonitrile]
EC50 (class symbols): 0.04 to 0.2 µM

N#Cc1cc(Nc2ccc(F)c(Cl)c2)cc(Nc2ccc3cc[nH]c3c2)n1 [Compound 140, 6-((1H-indol-6-yl)amino)-4-((3-chloro-4-fluorophenyl)amino)picolinonitrile]
EC50 (class symbols): 0.2 to 1 µM

COc1ccc(Nc2cc(C#N)nc(Nc3cc(Cl)c4cc[nH]c4c3)c2)cn1 [Compound 166, 6-[(4-chloro-1H-indol-6-yl)amino]-4-[(6-methoxypyridin-3-yl)amino]pyridine-2-carbonitrile]
EC50 (class symbols): 0.2 to 1 µM

N#Cc1cc(Nc2ccc3cc[nH]c3c2)cc(Nc2ccc3cc[nH]c3c2)n1 [Compound 145]
EC50 (class symbols): 0.2 to 1 µM

N#Cc1cc(Nc2ccc(C(F)(F)F)nc2)cc(Nc2ccc3cc[nH]c3c2)n1 [Compound 130, 6-[(1H-indol-6-yl)amino]-4-{[6-(trifluoromethyl)pyridin-3-yl]amino}pyridine-2-carbonitrile]
EC50 (class symbols): 0.2 to 1 µM

N#Cc1cc(Nc2cc(F)cc(Cl)c2)cc(Nc2cc(Cl)c3cc[nH]c3c2)n1 [Compound 171, 6-[(4-chloro-1H-indol-6-yl)amino]-4-[(3-chloro-5-fluorophenyl)amino]pyridine-2-carbonitrile]
EC50 (class symbols): 0.2 to 1 µM

N#Cc1cc(Nc2ccc(Cl)c(Cl)c2)cc(Nc2ccc3cc[nH]c3c2)n1 [Compound 138, 4-[(3,4-dichlorophenyl)amino]-6-[(1H-indol-6-yl)amino]pyridine-2-carbonitrile]
EC50 (class symbols): 0.2 to 1 µM

Fc1cnc(Nc2ccc3cc[nH]c3c2)cc1Nc1ccc2cc[nH]c2c1 [Compound 146]
EC50 (class symbols): 1 to 5 µM

N#Cc1cc(Nc2ccc3c(c2)CCC3)cc(Nc2cc(Cl)c3cc[nH]c3c2)n1 [Compound 188, 6-[(4-chloro-1H-indol-6-yl)amino]-4-[(2,3-dihydro-1H-inden-5-yl)amino]pyridine-2-carbonitrile]
EC50 (class symbols): 0.04 to 0.2 µM
